How the values were obtained:
[1] = ivermectin toxicity at high doses, relation to LD50; type: in vivo; details: 2000 mcg/kg (120 mg in a 60 kg adult)
[2] = in vivo; cited from earlier work
[3] = more than 200 mcg/kg (12 mg), 2000 mcg/kg (120 mg) and above; cited from earlier work
[4] = adverse reaction in a treated coronavirus patient; type: in vivo, human; details: person, doxycycline 100 mg bd added to amantadine, ivermectin, zinc
Protocol: A front-line worker and was diagnosed with coronavirus in association with fevers, aches and fatigue. They are commenced on amantadine orally using the standard capsule of […] once daily for ten days. […] They developed a rash to the doxycycline when added and this was changed to azithromycin 250 mg bd for the duration of the ten-day course.

[5] = in vivo; cited from earlier work; remark: listed apart in the source

Molecule: ivermectin
- dose as percentage of the LD50 [1]: 7%
- excretion [2]: mostly in the feces
- toxicity at doses above the accepted therapeutic dose [3]: without any increase in ivermectin toxicity

Molecule: C[C@H]1c2cccc(O)c2C(=O)C2=C(O)[C@]3(O)C(=O)C(C(N)=O)=C(O)[C@@H](N(C)C)[C@@H]3[C@@H](O)[C@@H]21 [doxycycline]
- adverse reaction [4]: rash

Molecule: CCN(CCO)CCCC(C)Nc1ccnc2cc(Cl)ccc12 (centres unmarked) [hydroxychloroquine]
- half-life [5]: 40 days

Source: US20240075049A1 (priority 2020, published 2024)
